Measurements from article PMC6272238, “Synthesis and Pharmacophore Modelling of 2,6,9-Trisubstituted Purine Derivatives and Their Potential Role as Apoptosis-Inducing Agents in Cancer Cell Lines” (Molecules, 2015).

Experiments:
[1] = test system: H1975 (lung) cells; assay: MTT cytotoxicity assay on H1975 cells; assay type: cell-based, human; details: for IC50: MTT, 72 h continuous exposure, triplicate, range 0.05 to 50 µM; for Selectivity Index (SI) (Vero/H1975): ratio IC50 (Vero)/IC50 (H1975)
Method: (§1) The potential in vitro antitumor activity of compounds 4a–l was initially tested for their cytotoxic effects on H1975, HL-60, HCT116 and HeLa cancer cell lines and Vero cells. […]
(§2) Cancer cell lines were grown at 37 °C in humidified atmosphere and 5% CO2. H1975, HL60, HTC116 and Vero cells were grown in RPMI 1640 culture medium supplemented with 10% fetal bovine serum and (100 UI/mL) penicillin-streptomicyn. HeLa cells were grown in EMEM culture medium, supplemented with 10% fetal bovine serum and (100 UI/mL) penicillin-streptomicyn.
(§3) Cytotoxicity assays were performed by using the MTT reduction method as described previously. Briefly, cancer cell lines were plated in a flat-bottom 96-wells plate at 10,000 cells per well density. […] Ten µL of MTT was added at a final concentration of 0.5 mg/mL, incubated at 37 °C for 4 h, and then solubilized with 10% sodium dodecyl sulfate (SDS) in 0.1 mM HCl and incubated overnight at 37 °C. Formazan formation was measured at 570 nm in a multiwell reader (StatFax 4200, Awareness Technology, Inc. Palm City, FL, USA).
(§4) Values are expressed as means ± standard deviations from three independent experiments. IC50 values, (Compound concentration necessary to decrease at 50% the MTT reduction) and the two-way analysis of variance (ANOVA) test were performed when necessary with Prism GraphPad 6.0f software (GraphPad Software Inc., San Diego, CA, USA).

[2] = test system: HL-60 (leukemia) cells; assay: MTT cytotoxicity assay on HL-60 cells; assay type: cell-based, human; details: 72 h continuous exposure, triplicate, range 0.05 to 50 µM
Method: as §1, §2, §3, §4

[3] = test system: HCT116 (colorectal) cells; assay: MTT cytotoxicity assay on HCT116 cells; assay type: cell-based, human; details: for IC50: MTT, 72 h continuous exposure, triplicate, range 0.05 to 50 µM; for Selectivity Index (SI) (Vero/HCT116): ratio IC50 (Vero)/IC50 (HCT116)
Method: as §1, §2, §3, §4

[4] = test system: HeLa cells; assay: MTT cytotoxicity assay on HeLa cells; assay type: cell-based, human; details: for IC50: MTT, 72 h continuous exposure, triplicate, range 0.05 to 50 µM; for Selectivity Index (SI) (Vero/HeLa): ratio IC50 (Vero)/IC50 (HeLa)
Method: as §1, §2, §3, §4

[5] = test system: Vero cells; assay: MTT cytotoxicity assay on Vero cells; assay type: cell-based; details: Chlorocebus sabaeus, 72 h continuous exposure, triplicate, range 0.05 to 50 µM
[6] = test system: H1975 cells; assay: Apoptosis/viability assay by FACS with propidium iodide, H1975; assay type: cell-based, human; details: H1975, 50 µM, 16 h, PI staining
Method: (§5) To evaluate sensitivity to 4f, 4j and 4k, Vero, HTC116, H1975 and Hela were treated with concentrations of 50 µM for 16 h. Fifty µM etoposide was used as positive control. As it can be seen in Figure 5, 4f, 4j and 4k induced apoptosis as a prevalent type of cell death, in high percentages (>70%), in every cancer cell line. Moreover, 4f, 4j, and 4k induced an apoptotic cell response greater than etoposide.
(§6) Cell viability was analyzed by FACS as previously described. In this assay, after setting the baseline to exclude cell debris, cells impermeable to propidium iodide (PI negative) are considered as viable. Two populations of PI-permeable dead cells are distinguished based on fluorescence intensity, corresponding to either hypodiploid apoptotic cells or necrotic cells with intact DNA. Here, H1975, HTC116, and HeLa cells were incubated with concentrations of 50 µM of each compound for 16 h at 37 °C. Cells were harvested and stained with 10 µg/mL of propidium iodide to determine cell viability. Samples containing roughly 1 × 10^4 cells were evaluated by flow cytometry (FACScanto II; Becton Dickinson, Mountain View, CA, USA) and analyzed using the software program FCS Express v5.

[7] = test system: HTC116 cells; assay: Apoptosis/viability assay by FACS with propidium iodide, HTC116; assay type: cell-based, human; details: HTC116, 50 µM, 16 h, PI staining
Method: as §5, §6

[8] = test system: HeLa cells; assay: Apoptosis/viability assay by FACS with propidium iodide, HeLa; assay type: cell-based, human; details: 50 µM, 16 h, PI staining
Method: as §5, §6

Row | melting point | SMILES | IC50 ([1]; Homo sapiens, NCI-H1975, 72 h) | Selectivity Index (SI) (Vero/H1975) [1] | IC50 ([2]; Homo sapiens, HL-60, 72 h) | IC50 ([3]; Homo sapiens, HCT-116, 72 h) | Selectivity Index (SI) (Vero/HCT116) [3] | IC50 ([4]; Homo sapiens, HeLa, 72 h) | Selectivity Index (SI) (Vero/HeLa) [4] | IC50 [5] | IC50 [1] | IC50 [2] | IC50 [3] | IC50 [4] | apoptosis (percentage of cells) [6] | apoptosis (percentage of cells) [7] | apoptosis (percentage of cells) [8]
1 | – | CC(C)n1cnc2c(NCc3ccccc3)nc(NCc3ccccc3)nc21 [Compound 4a, N^2,N^6-Dibenzyl-9-isopropyl-9H-purine-2,6-diamine] | 14 ± 0.26 µM | 1.43 | 26 ± 0.13 µM | 13 ± 0.12 µM | 1.54 | 32 ± 0.13 µM | 0.63 | 20 ± 0.11 µM | – | – | – | – | – | – | –
2 | 113 to 115 °C | CCCCn1cnc2c(NCc3ccccc3)nc(NCc3ccccc3)nc21 [Compound 4b, N^2,N^6-Dibenzyl-9-butyl-9H-purine-2,6-diamine] | 28 ± 0.08 µM | 0.20 | > 50 µM | 7.2 ± 0.16 µM | 0.78 | 18 ± 0.14 µM | 0.31 | 5.6 ± 0.15 µM | – | – | – | – | – | – | –
3 | 111 to 113 °C | CC(C)Cn1cnc2c(NCc3ccccc3)nc(NCc3ccccc3)nc21 [Compound 4c, N^2,N^6-Dibenzyl-9-isobutyl-9H-purine-2,6-diamine] | > 36 µM | 0.61 | > 36 µM | > 36 µM | – | > 36 µM | – | 22 ± 0.23 µM | 36 ± 0.27 µM | > 50 µM | > 50 µM | > 50 µM | – | – | –
4 | 83 to 86 °C | CCCCCn1cnc2c(NCc3ccccc3)nc(NCc3ccccc3)nc21 [Compound 4d, N^2,N^6-Dibenzyl-9-pentyl-9H-purine-2,6-diamine] | 12 ± 0.19 µM | 0.21 | > 50 µM | 11 ± 0.11 µM | 0.23 | 10.1 ± 0.14 µM | 0.25 | 2.5 ± 0.2 µM | – | – | – | – | – | – | –
5 | 69 to 70 °C | CC(C)CCn1cnc2c(NCc3ccccc3)nc(NCc3ccccc3)nc21 [Compound 4e, N^2,N^6-Dibenzyl-9-isopentyl-9H-purine-2,6-diamine] | 8.6 ± 0.18 µM | 0.29 | > 50 µM | 5.1 ± 0.14 µM | 0.49 | 2.7 ± 0.13 µM | 0.93 | 2.5 ± 0.14 µM | – | – | – | – | – | – | –
6 | – | CCCCCCn1cnc2c(NCc3ccccc3)nc(NCc3ccccc3)nc21 [Compound 4f, N^2,N^6-Dibenzyl-9-hexyl-9H-purine-2,6-diamine] | 9.9 ± 0.18 µM | 2.63 | > 50 µM | 3 ± 0.12 µM | 8.67 | 5.3 ± 0.13 µM | 4.91 | 26 ± 0.12 µM | – | – | – | – | > 70% | > 70% | > 70%
7 | 69 to 70 °C | COc1ccc(CNc2nc(NCc3ccccc3)nc3c2ncn3C(C)C)cc1 [Compound 4g, N^2-Benzyl-9-isopropyl-N^6-(4-methoxybenzyl)-9H-purine-2,6-diamine] | > 50 µM | – | 22 ± 0.13 µM | 7.1 ± 0.11 µM | 2.11 | 10.7 ± 0.18 µM | 1.40 | 15 ± 0.23 µM | – | – | – | – | – | – | –
8 | – | CCCCn1cnc2c(NCc3ccc(OC)cc3)nc(NCc3ccccc3)nc21 [Compound 4h, N^2-Benzyl-9-butyl-N^6-(4-methoxybenzyl)-9H-purine-2,6-diamine] | 11 ± 0.25 µM | – | > 50 µM | 7 ± 0.16 µM | – | 6.3 ± 0.17 µM | – | 17 ± 0.2 µM | – | – | – | – | – | – | –
9 | 110 to 112 °C | COc1ccc(CNc2nc(NCc3ccccc3)nc3c2ncn3CC(C)C)cc1 [Compound 4i, N^2-Benzyl-9-isobutyl-N^6-(4-methoxybenzyl)-9H-purine-2,6-diamine] | 3.4 ± 0.28 µM | 0.56 | > 50 µM | 1.6 ± 0.12 µM | 1.19 | 4.9 ± 0.16 µM | 0.39 | 1.9 ± 0.24 µM | – | – | – | – | – | – | –
10 | – | CCCCCn1cnc2c(NCc3ccc(OC)cc3)nc(NCc3ccccc3)nc21 [Compound 4j, N^2-Benzyl-N^6-(4-methoxybenzyl)-9-pentyl-9H-purine-2,6-diamine] | 2.3 ± 0.13 µM | 11.30 | > 50 µM | 8 ± 0.21 µM | 3.25 | 9.5 ± 0.14 µM | 2.74 | 26 ± 0.18 µM | – | – | – | – | > 70% | > 70% | > 70%
11 | – | COc1ccc(CNc2nc(NCc3ccccc3)nc3c2ncn3CCC(C)C)cc1 [Compound 4k, N^2-Benzyl-9-isopentyl-N^6-(4-methoxybenzyl)-9H-purine-2,6-diamine] | 5.6 ± 0.23 µM | 6.07 | > 50 µM | 11 ± 0.26 µM | 3.09 | 5.4 ± 0.32 µM | 6.30 | 34 ± 0.13 µM | – | – | – | – | > 70% | > 70% | > 70%
12 | – | CCCCCCn1cnc2c(NCc3ccc(OC)cc3)nc(NCc3ccccc3)nc21 [Compound 4l, N^2-Benzyl-9-hexyl-N^6-(4-methoxybenzyl)-9H-purine-2,6-diamine] | > 50 µM | – | > 50 µM | 6.8 ± 0.14 µM | – | 9 ± 0.13 µM | – | 15 ± 0.06 µM | – | – | – | – | – | – | –
13 | – | COc1cc([C@@H]2c3cc4c(cc3[C@@H](O[C@@H]3O[C@@H]5CO[C@@H](C)O[C@H]5[C@H](O)[C@H]3O)[C@H]3COC(=O)[C@H]23)OCO4)cc(OC)c1O [Etoposide, reference compound] | 8 ± 0.33 µM | – | 6.2 ± 0.18 µM | 2.8 ± 0.24 µM | – | 8.2 ± 0.33 µM | – | > 25 µM | – | – | – | – | – | – | –
